Data from patent US20160206550A1, “STROMAL DELLS DERIVED CONDITIONED MEDIUM, METHOD OF OBTAINING SAID CONDITIONED MEDIUM COMPOSITIONS, FORMULATIONS AND APPLICATIONS THEREOF” (STEMPEUTICS RESEARCH PVT. LTD., priority 2013, published 2016).

System: HFF-1 cells
Assay: Cytoprotective/viability restorative effect against tbOH damage (MTT)
Assay type: cell-based, human
Settings: 100 μM, positive control in serum free medium
Procedure: Cytoprotective viability restorative effects of 10×CM generated by process 2 against oxidative damage in dermal fibroblast cells upon treatment with 300 μM of tert-butyl hydroperoxide (tbOH) for 2 h and post treatment of damaged fibroblast with 10×CM for 48 h is evaluated by MTT assay. Treatment of HFF-1 cells with 300 μM of tbOH leads to 35% decrease in cellular viability in SFM treated as compared to untreated cells. The cytoprotection obtained with 10×CM is 11%, 18% and 12% higher at the doses of 5%, 10% and 50% respectively as compared to respective 10× control medium treated cells against tbOH damage (FIG. 10). In this assay, serum free medium with ascorbic acid (SFM+AA) is used as a positive control. Treatment of HFF-1 cells with 100 μM ascorbic acid (AA) also leads to 12% cytoprotection against tbOH damage. […] 10×CM has shown a trend in the ability to restore the viability of oxidative stressed fibroblast cells at the concentrations 5%, 10% and 50%. Maximum activity is observed at 10% 10×CM.

For `O=C1O[C@H]([C@@H](O)CO)C(O)=C1O` [ascorbic acid], the “cytoprotection against tbOH damage” value was 12%.
